According to patent publication US12209111B2, “Targeting P18 for mTOR-related disorders” (WESTERN UNIVERSITY OF HEALTH SCIENCES, priority 2018, dated 2025):
“Also recorded” adds a separate entry of the source. Where a SMILES comes first, the peptide text is derived from it. The star is where a group is joined. Cbz = O=C(OCc1ccccc1)*

What was measured:
p18 [1] = assay: Cultured hippocampal neurons treated with MG132 or BafA, p18 immunofluorescence; format: cell-based, mouse; conditions: 4 h
p18 [2] = assay: Acute hippocampal slices treated with proteasome or lysosome inhibitor, p18 Western blot; format: cell-based, mouse; conditions: 30 min
Protocol: Acute Hippocampal Slice Preparation. Adult male mice (2-4-month-old) were anesthetized with gaseous isoflurane and decapitated. Brains were quickly removed and transferred to oxygenated, ice-cold cutting medium (in mM): 124 NaCl, 26 NaHCO3, 10 glucose, 3 KCl, 1.25 KH2PO4, 5 MgSO4, and 3.4 CaCl2. Hippocampal transversal slices (400 μm-thick) were prepared using a McIlwain-type tissue chopper and transferred to i) an interface recording chamber and exposed to a warm, humidified atmosphere of 95% O2/5% CO2 and continuously perfused with oxygenated and preheated (33±0.5° C.) artificial cerebrospinal fluid (aCSF) (in mM) [110 NaCl, 5 KCl, 2.5 CaCl2, 1.5 MgSO4, 1.24 KH2PO4, 10 D-glucose, 27.4 NaHCO3], perfused at 1.4 ml/min (electrophysiology); or ii) a recovery chamber with a modified aCSF medium, containing (in mM): 124 NaCl, 2.5 KCl, 2.5 CaCl2, 1.5 MgSO4, 1.25 NaH2PO4, 24 NaHCO3, 10 D-glucose, and saturated with 95% O2/5% CO2 for 1 h at 37° C. (biochemical assays).
To determine whether Ube3a-mediated regulation of p18 was proteasome- and/or lysosome-dependent, acute hippocampal slices from WT and AS mice were treated with either a proteasome inhibitor, MG132 (10 μM), or a lysosome inhibitor, the vacuolar H+-ATPase (V-ATPase) inhibitor, bafilomycin A1 (BafA, 100 nM), for 30 min.

mTOR = molecular target: T1, mTOR (Mus musculus, UniProt Q9JLN9); assay: MHY1485 treatment of hippocampal slices from p18 siRNA-injected WT mice (LTP, Western blot); format: cell-based; conditions: 2 μM, 60 min pre-incubation, to levels of control siRNA-injected WT mice
T1 construct: Pre-incubation of hippocampal slices with MHY1485 (2 μM) for 60 min reestablished TBS-elicited LTP; from tissue; host or cells: acute hippocampal slices from AAV p18 siRNA- or control siRNA-injected WT mice
Protocol: Electrophysiology. After 1.5 h incubation at 33±0.5° C. in the recording chamber, a single glass pipette filled with 2 M NaCl was used to record field EPSPs (fEPSPs) elicited by stimulation of the Schaffer collateral pathway with twisted nichrome wires (single bare wire diameter, 50 μm) placed in CA1 stratum radiatum. Stimulation pulses were generated using a Multichannel Systems Model STG4002 Stimulator (Reutlingen, Germany). Responses were recorded through a differential amplifier (DAM 50, World Precision Instruments, USA) with a […]. Before each experiment, the input/output (I/O) relation was examined by varying the intensity of the stimulation. Paired-pulse facilitation was tested at 20-300 ms interval. Long-term potentiation (LTP) was induced using theta burst stimulation (10 bursts at 5 Hz, each burst consisting of 4 pulses at 100 Hz, with a pulse duration of 0.2 ms). For LTP and paired-pulse facilitation experiments, the stimulation intensity was regulated to a current which elicited a 40% of maximal response. Data were collected and digitized by Clampex, and the slope of fEPSP was analyzed. […] All data are expressed as means±SEM, and statistical significance of differences between means was calculated with appropriate statistical tests as indicated in figure legends.

Hela cell [3] = assay: Lysosome positioning in Hela cells (Lysotracker live imaging); format: cell-based; conditions: for lysosome distribution to the peripheral region of the cell: before and 30 min after treatment (FIG. 20B)
Protocol: (§1) (A) Amino acid sequence of human p18 (SEQ ID NO: 23). G2 is a myristoylation site. C3 and C4 are palmitoylation sites. K20, K31, K60, K103, K104, and K151 (red) are potential ubiquitination sites. Two short peptides around K20/31 and K151 (underlined) were respectively conjugated to the cell membrane transduction domain of HIV-1 Tat protein (TAT-2031 and TAT-151). […] Hela cells were stained with Lysotracker (red) and imaged live. Top panel, representative images of Lysotracker before and 30 min after TAT-2031 treatment are shown. Bottom panel, graph represents the distribution of lysosomes relative to the MTOC, normalized to the distance between the MTOC and the cell periphery. (C) Hela cells were incubated with TAT or TAT-2031 (2 μM) for 42 hr. Representative blots and quantification of p18, p-mTOR/mTOR, p-S6K1/S6K1, and p-S6/S6 in whole cell lysates are shown. N=2 independent experiments.
(§2) Example 9: Short peptides targeting p18 reduced mTOR activation and promoted peripheral positioning of lysosomes in HELA cells. To test whether blocking p18 ubiquitination and interruption of its interaction with other proteins could disrupt mTOR signaling and lysosome localization and function, we designed two small decoy peptides (TAT-2031 and TAT-151) targeting different domains of p18 containing lysine residues (FIG. 20A); these peptides are conjugated to the cell membrane transduction domain of HIV-1 Tat protein. […] SEQ ID NO:19 corresponds to […], residues 20-31 of p18.

mTOR signaling pathway = assay: mTOR signaling in Hela cells treated with p18 short peptides, Western blot; format: cell-based; conditions: for mTORC1 activation: Hela cells (FIG. 20C); for Effects: mTOR signaling pathway: Hela cells, TAT or TAT-2031 2 μM for 42 hr, ratios p-mTOR/mTOR, p-S6K1/S6K1, p-S6/S6
Protocol: as §1, §2

p18-TRPML1 interaction = p18-TRPML1 interaction (Homo sapiens, UniProt Q6IAA8); assay: p18-TRPML1 interaction
Sequence of p18-TRPML1 interaction (Q9GZU1 whole entry partner): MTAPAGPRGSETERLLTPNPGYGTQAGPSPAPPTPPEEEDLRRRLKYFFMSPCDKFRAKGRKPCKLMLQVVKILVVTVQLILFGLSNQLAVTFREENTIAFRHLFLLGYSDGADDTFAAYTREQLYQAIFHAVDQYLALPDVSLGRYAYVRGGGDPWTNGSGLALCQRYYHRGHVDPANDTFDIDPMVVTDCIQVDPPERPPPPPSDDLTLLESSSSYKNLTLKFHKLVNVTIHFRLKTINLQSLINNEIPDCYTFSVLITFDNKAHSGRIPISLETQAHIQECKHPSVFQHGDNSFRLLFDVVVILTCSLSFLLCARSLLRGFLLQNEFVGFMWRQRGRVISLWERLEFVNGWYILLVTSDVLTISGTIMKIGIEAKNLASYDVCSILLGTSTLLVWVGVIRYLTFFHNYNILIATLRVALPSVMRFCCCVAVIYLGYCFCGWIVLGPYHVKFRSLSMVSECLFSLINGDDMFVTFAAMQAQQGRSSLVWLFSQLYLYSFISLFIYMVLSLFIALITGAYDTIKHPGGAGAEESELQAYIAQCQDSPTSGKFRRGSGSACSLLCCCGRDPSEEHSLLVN
Sequence of p18-TRPML1 interaction (Q6IAA8 whole entry): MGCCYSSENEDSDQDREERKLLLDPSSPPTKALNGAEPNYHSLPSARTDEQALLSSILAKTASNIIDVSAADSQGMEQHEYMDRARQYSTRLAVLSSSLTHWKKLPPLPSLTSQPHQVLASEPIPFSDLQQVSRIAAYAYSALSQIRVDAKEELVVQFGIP
Excerpt: as §2

Hela cell [4] = assay: Migration of Hela cell; format: cell-based

Molecule | lysosome distribution to the peripheral region of the cell (Hela cell [3]) | mTORC1 activation (mTOR signaling pathway) | Effects: mTOR signaling pathway (mTOR signaling pathway) | Effects: p18-TRPML1 interaction (p18-TRPML1 interaction) | Effects: Migration of Hela cell (Hela cell [4]) | further results
CO/C1=C\C(C)=C\[C@@H](C)[C@@H](O)[C@@H](C)C/C(C)=C/C=C/[C@H](OC)[C@@H]([C@@H](C)[C@@H](O)[C@H](C)[C@@]2(O)C[C@@H](O)[C@H](C)[C@@H](C(C)C)O2)OC1=O [BafA, bafilomycin A1] |  |  |  |  |  | p18 intensity (p18 [1]; cultured hippocampal neurons from both WT and AS mice, 100 nM): only slightly increased
CC(C)C[C@@H](C=O)NC(=O)[C@H](CC(C)C)NC(=O)[C@H](CC(C)C)NC(=O)OCc1ccccc1 [MG132] (Cbz-Leu-Leu-Leu-aldehyde) |  |  |  |  |  | p18 levels in AS slices (p18 [2]; acute hippocampal slices from AS mice, MG132 10 μM): marginally; p18 levels in WT slices (p18 [2]; acute hippocampal slices from WT mice, MG132 10 μM or BafA 100 nM): significantly increased; p18 intensity (p18 [1]; cultured hippocampal neurons from WT mice, 10 μM): markedly increased
O=[N+]([O-])c1ccc(Nc2nc(N3CCOCC3)nc(N3CCOCC3)n2)cc1 [MHY1485] |  |  |  |  |  | TBS-elicited LTP (mTOR): reestablished
TAT-151: Short p18 peptide around K151 conjugated to HIV-1 Tat transduction domain: YGRKKRRQRRRKEELVV | not | not | Little |  |  | 
TAT-2031: p18 residues 20-31 (KLLLDPSSPPTK) conjugated to HIV-1 Tat transduction domain: YGRKKRRQRRRKLLLDPSSPPTK | increased; also recorded: shifted the distribution of lysosomes toward the cell periphery | significantly reduced |  | Reduced the | Slightly reduced | lysosome distribution to the peripheral region of the cell (Hela cell [3]; listed as short decoy peptide around K20/31): increased
TAT: Cell membrane transduction domain of HIV-1 Tat protein, YGRKKRRQRRR; control peptide [reference compound] |  |  | No | No | No | Effects: Lysosome positioning in Hela cell (Hela cell [3]): No
